Measured values as given in patent publication US20220264878A1, “HERBICIDAL COMPOSITION CONTAINING R-TYPE PYRIDYLOXY CARBOXYLIC ACID DERIVATIVE AND USE THEREOF” (Qingdao Kingagroot Chemical Compound Co., Ltd., priority 2019, published 2022).

Key:
Assay type in all cases: in vivo
Echinochloa caudate = assay: Soil sealing treatment, pot culture, fresh weight inhibition (Tables 99, 100)
Experimental: A method for investigating absolute number was employed, wherein whole seedlings of survival weeds were cut off with a blade along the soil surface, and the fresh weight of the weeds was weighed with an analytical balance. For dead weeds, the fresh weight thereof was zero.
Theoretical fresh weight inhibition rate of a combination of two active ingredients in each group was calculated by the Gowing method (E0=X+Y−X*Y/100), and then compared with an actually measured inhibition rate (E), thereby effect of the combination (hereafter referred to as combined effect) on weeds was evaluated: the value of E-E0, which was greater than 10%, corresponded to a synergistic effect, the value of E-E0, which was less than −10%, corresponded to an antagonistic effect, and the value of E-E0, which was from −10% to 10%, corresponded to an additional effect. […] Wherein, in the formula, X represented the fresh weight inhibition rate of the active ingredient A in a dosage of P, and Y represented the fresh weight inhibition rate of the active ingredient B in a dosage of Q.
Echinochloa crusgalli var zelayensis were collected in Huai'an of Jiangsu Province; Echinochloa caudate were collected in Pingluo of Ningxia Province; Echinochloa oryzoides were collected in Qiqiha'er of Heilongjiang Province.
The culture was carried out in a controllable sunlight greenhouse at 20 to 30° C., in natural light, and relative humidity of 57% to 72%. […] The test soil was placed quantitatively to ¾ of the pots and then watered from the bottom of the pots to completely wet the soil to saturation. The pretreated test weed seeds were uniformly sowed on the surface, then covered with 0.5-2 cm soil according to the seed size, and ready-for use 24 hours after sowing.
The technical materials were all dissolved in acetone, and diluted with an aqueous solution containing 0.1% emulsifier T-80. The dilution is performed as required.
A ratio of A to the active ingredient B and amounts thereof in each group depends on the characteristics and toxicity of the two agents, as well as the main application purpose of a corresponding formulation. Based on the pre-tests in this study, the dosage of A and the active ingredient B applied alone and in combination were shown in the tables. Water containing the solvent and emulsifier same with the above groups but free of the agents was used as a blank control.
3 pots with 30 weed seeds per pot were treated in one treatment with 4 replications per treatment.
The pots which were sowed and mulched were evenly placed on a platform with an area of 0.5 m^2, and a solution of agents was sprayed on soil surface thereof by the 3WP-2000-type walking spray tower at a dosage of […] and at a spray pressure of 0.3 MPa. After all the solution was sprayed, the valve was closed. After 30 seconds, the door of the spray tower was opened, and the nutritional bowl was taken out. Then the valve was opened, and the spray tube was cleaned by spraying 50 ml of water.
This section was same as the section 4) in the post-emergence treatment by performing foliage spray, and was not repeated herein.

Veronica didyma = assay: Post-emergence foliage spray, pot culture, fresh weight inhibition (Tables 151-206; 20 days); settings: 20 days after treatment
In short: (§1)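 Field-collected weeds grown in pots in a greenhouse (20-30° C., natural light, 57-72% RH), 15 per pot, 3 pots × 4 replicates. Single foliar spray at 4-5 leaves (grasses) or 5-6 leaves (broadleaf) with acetone/0.1% Tween-80 dilutions at 450 kg/ha, 0.3 MPa. Above-ground fresh weight inhibition versus solvent blank at 20 days.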

Conyza Canadensis = assay: as above; settings: 20 days after treatment
In short: as §1

Row | SMILES | Control effect (%) of A applied alone in corresponding dose (Echinochloa caudate; Table 99, 75 g a.i./ha) [%] | Control effect (%) of A applied alone in corresponding dose (Echinochloa caudate; Table 99, 150 g a.i./ha) [%] | Control effect (%) of A applied alone in corresponding dose (Echinochloa caudate; Table 100, 75 g a.i./ha) [%] | Control effect (%) of A applied alone in corresponding dose (Echinochloa caudate; Table 100, 150 g a.i./ha) [%] | Control effect (%) of A applied alone in corresponding dose (Veronica didyma; A alone 75 g a.i./ha) [%] | Control effect (%) of A applied alone in corresponding dose (Veronica didyma; A alone 150 g a.i./ha) [%] | Control effect (%) of A applied alone in corresponding dose (Conyza Canadensis; A alone 75 g a.i./ha) [%] | Control effect (%) of A applied alone in corresponding dose (Conyza Canadensis; A alone 150 g a.i./ha) [%]
1 | C[C@@H](Oc1nc(F)c(Cl)c(N)c1Cl)C(=O)O [Compound A1] | 23.4 | 47.2 | 23.4 | 47.2 |  |  |  | 
2 | C[C@@H](Oc1nc(F)c(Cl)c(N)c1Cl)C(=O)OCC1CCCO1 (some centres unmarked) [Compound A2] |  |  |  |  | 19.7 | 36.6 | 38.1 | 54.4
